Source: publication PMC9960553, ““Dual Anta-Inhibitors” of the A2A Adenosine Receptor and Casein Kinase CK1delta: Synthesis, Biological Evaluation, and Molecular Modeling Studies” (Pharmaceuticals, 2023)
Like-named read-outs stand apart in the source and are kept apart here.

Assays:
CDK5 = tested on: CDK5; set-up: method as in PMID 18698753, PMID 29289448; details: cited from earlier work
CK1δ/ε = details: read-out: IC50 as CK1δ/ε inhibitor; cited from earlier work
human recombinant A2AAR [1] = target: T1, human recombinant A2AAR (Homo sapiens, UniProt P29274); details: read-out: KiA2AAR; cited from earlier work
T1 construct: expressed in transfected cells; host or cells: CHO cells (membranes)

truncated CK1δ = target: T2, truncated CK1δ (Homo sapiens, UniProt P48730); assay: CK1δ luminescent kinase assay (Kinase-Glo); format: biochemical; details: for remaining activity at 10 µM / remaining activity at 40 µM: CK1δ residual activity; for remaining activity at 10 µM: compound at 10 μM, read-out: % Residual Activity at 10 μM ± sd; for remaining activity at 40 µM: compound at 40 μM, read-out: % Residual Activity at 40 μM ± sd; for IC50: truncated CK1δ, ATP 2 μM, read-out: IC50 (μM), CK1δ inhibition
T2 construct: recombinant human, GST-tagged, aa 1-294; GST; purchased Merck Millipore, Merck KGaA, Darmstadt, Germany
T2 sequence (P48730 1-294): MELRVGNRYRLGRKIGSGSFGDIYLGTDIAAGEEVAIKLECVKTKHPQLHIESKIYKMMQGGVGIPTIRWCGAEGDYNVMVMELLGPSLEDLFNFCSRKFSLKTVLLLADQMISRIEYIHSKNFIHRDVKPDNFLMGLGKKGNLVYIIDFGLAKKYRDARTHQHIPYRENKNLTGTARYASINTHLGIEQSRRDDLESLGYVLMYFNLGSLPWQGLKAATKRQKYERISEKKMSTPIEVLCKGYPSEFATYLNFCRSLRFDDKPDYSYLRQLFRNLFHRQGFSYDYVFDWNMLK
Description: Luminescent assays were performed in white 96-well plates in a 40 μL final volume with buffer containing 50 mM HEPES (pH 7.5), 1 mM EDTA, 1 mM EGTA, and 15 mM MgCl2. In a typical assay, 10 μL of inhibitor solution (desired concentrations were obtained by diluting a starting 10 mM solution in DMSO) and 10 μL of enzyme solution were added to the well, followed by 20 μL of assay buffer containing casein substrate (Sigma-Aldrich, Merck KGaA, Darmstadt, Germany, casein solution from bovine milk, 5% in water) and ATP, at a final concentration of 0.05% and 2 μM, respectively. […] After 60 min of incubation at 30 °C, the enzymatic reactions were stopped with the addition of 40 μL of KinaseGlo reagent. […] Data were analyzed using Excel and GraphPad Prism software (version 8.0).

hA2AAR = target: T3, hA2AAR (Homo sapiens, UniProt P29274); assay: Antagonism of NECA-induced cAMP accumulation in CHO cells, GloSensor cAMP assay; format: cell-based; details: CHO cells stably expressing hA2AAR; read-out: IC50, inhibition of NECA effect on cAMP production
T3 construct: expressed in transfected cells; host or cells: CHO cells stably expressing hA2AAR and pGloSensor-22F
Description: In order to confirm the antagonist activity of the dual anta-inhibitors 12 and 17, they were evaluated in a functional assay in CHO cells stably expressing the hA2AAR. Firstly, they were tested alone, and […] in terms of cAMP stimulation was observed. […] Both 12 and 17 were able to inhibit the effect of NECA on cAMP production, thus resulting in A2AAR antagonists.
Functional activity was determined as described earlier. Briefly, cells stably expressing both the hA2A or hA2B AR and the plasmid pGloSensor-22F coding for the biosensor were cultured. This biosensor encodes for a genetically modified form of firefly luciferase into which a cAMP-binding protein moiety was inserted. The desiderate cell number was harvested and incubated for 2 h at r.t., with 3% v/v GloSensor cAMP reagent stock solution, 10% FBS, and 87% CO2 independent medium. Cells were dispensed in the wells of a 384-well plate and the reference agonist NECA or the under-study compounds were added at different concentrations. Since the compounds were unable to stimulate cAMP production, they were studied as antagonists. The antagonist profile was evaluated by assessing the ability to counteract an NECA-induced increase in cAMP accumulation. Responses were expressed as a percentage of the maximal relative luminescence units (RLU). Concentration–response curves were fitted by a nonlinear regression using Prism software. […]

human recombinant A1AR = target: T4, human recombinant A1AR (Homo sapiens, UniProt P30542); assay: [3H]CCPA displacement binding in CHO cell membranes; details: mean ± standard error, read-out: KiA1
T4 construct: expressed in transfected cells; host or cells: CHO cells (membranes)
T4 sequence (P30542 1-326): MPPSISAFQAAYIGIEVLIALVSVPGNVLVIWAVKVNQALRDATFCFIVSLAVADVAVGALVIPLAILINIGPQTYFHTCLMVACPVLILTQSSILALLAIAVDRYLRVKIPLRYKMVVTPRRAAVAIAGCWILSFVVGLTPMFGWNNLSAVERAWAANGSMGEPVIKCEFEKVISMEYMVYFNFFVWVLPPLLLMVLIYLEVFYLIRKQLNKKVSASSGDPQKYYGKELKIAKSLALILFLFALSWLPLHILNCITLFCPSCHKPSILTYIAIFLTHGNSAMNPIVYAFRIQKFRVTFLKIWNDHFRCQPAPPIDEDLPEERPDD
Description: (§1) Compounds 5, 6, 8–12, 15–21, and 23–25 were evaluated in binding studies at human recombinant A1, A2A, and A3 ARs, stably transfected in Chinese hamster ovary (CHO) cells. [^3H]CCPA (2-chloro-N^6-cyclopentylAdo), [^3H]NECA (5’-N-ethylcarboxamidoAdo), and [^3H]HEMADO (2-hexynyl-N^6-methylAdo) were used as the, respective, radioligands. All compounds were also tested at the A2BARs by inhibition of NECA-stimulated adenylyl cyclase activity, using the GloSensor cAMP assay, but none of them were active at a concentration up to 30 μM [35]. The results, together with the data of the reference adenine derivative 1, are reported in Table 2 as Ki values in μM (± standard errors). In the table, the IC50 values (μM) of the CK1δ inhibitory activity are also indicated. […] We called the compounds endowed with receptor antagonist behavior combined with an enzyme inhibitory activity “dual anta-inhibitors”.
(§2) All of the pharmacological methods followed the procedures as described earlier. In brief, the membranes for radioligand binding were prepared from CHO cells stably transfected with human adenosine receptor subtypes through two centrifugations at different speeds. The first low-speed […] centrifugation allowed for the removal of cell fragments and nuclei, while the second, performed at high speed (100,000× g), allowed for the precipitation of the crude membrane fractions. The resulting membrane pellet was resuspended in the buffer used for the respective binding experiments, frozen in liquid nitrogen, and stored in aliquots at −80 °C.
(§3) The binding affinity of the novel compounds was evaluated using radioligand competition experiments in CHO cells stably expressing hA1AR, hA2AAR, hA3AR subtypes, as early described. Results were expressed as Ki values (dissociation constants), which were calculated with the program GraphPad (GraphPad Software, San Diego, CA, USA). Each concentration was tested three–five times in duplicate and the values given as the mean ± standard error (S.E.). The potency of compounds at the hA2BAR (expressed on CHO cells) was determined through a GloSensor cAMP Assay.

human recombinant A2AAR [2] = target: T1, human recombinant A2AAR; assay: [3H]NECA displacement binding in CHO cell membranes; details: mean ± standard error, read-out: KiA2A
Description: as §1, §2, §3

human recombinant A3AR = target: T5, human recombinant A3AR (Homo sapiens, UniProt P0DMS8); assay: [3H]HEMADO displacement binding in CHO cell membranes; details: mean ± standard error, read-out: KiA3
T5 construct: expressed in transfected cells; host or cells: CHO cells (membranes)
T5 sequence (P0DMS8 1-318): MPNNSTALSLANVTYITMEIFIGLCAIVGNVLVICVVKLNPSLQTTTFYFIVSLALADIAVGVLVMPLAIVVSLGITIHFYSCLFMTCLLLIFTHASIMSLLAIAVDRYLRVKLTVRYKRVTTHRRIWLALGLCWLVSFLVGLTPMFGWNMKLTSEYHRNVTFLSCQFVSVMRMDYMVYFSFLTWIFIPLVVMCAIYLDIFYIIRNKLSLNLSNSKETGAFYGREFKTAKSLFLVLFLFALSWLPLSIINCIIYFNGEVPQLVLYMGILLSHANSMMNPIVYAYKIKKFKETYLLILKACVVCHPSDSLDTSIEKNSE
Description: as §1, §2, §3

CK1δ = details: cited from earlier work
CK1ε = details: cited from earlier work

T1 sequence (P29274 whole entry): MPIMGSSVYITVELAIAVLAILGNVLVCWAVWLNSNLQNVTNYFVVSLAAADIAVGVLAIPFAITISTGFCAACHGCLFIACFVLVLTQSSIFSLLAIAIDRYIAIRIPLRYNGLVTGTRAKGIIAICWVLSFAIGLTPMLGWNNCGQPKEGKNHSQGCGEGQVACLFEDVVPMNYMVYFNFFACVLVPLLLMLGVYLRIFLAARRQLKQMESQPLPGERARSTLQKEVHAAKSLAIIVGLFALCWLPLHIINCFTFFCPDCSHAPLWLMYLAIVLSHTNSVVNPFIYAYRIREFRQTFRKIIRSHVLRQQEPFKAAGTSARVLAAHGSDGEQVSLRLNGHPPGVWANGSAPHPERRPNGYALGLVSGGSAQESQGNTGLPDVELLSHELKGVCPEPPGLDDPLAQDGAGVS
T3 sequence (P29274 whole entry): as above

| remaining activity at 10 µM (truncated CK1δ) | remaining activity at 40 µM (truncated CK1δ) | IC50 (truncated CK1δ) | IC50 (hA2AAR) | Ki (human recombinant A1AR) | Ki (human recombinant A2AAR [2]) | Ki (human recombinant A3AR) | Compound | IC50 (CK1δ/ε) | also measured |
| --- | --- | --- | --- | --- | --- | --- | --- | --- | --- |
|  |  |  |  |  |  |  | CC[C@H](CO)Nc1nc(Nc2ccc(-c3cccnc3)cc2)c2ncn(C(C)C)c2n1 [(R)-DRF053] | 14 nM | IC50 (CDK5): 80 nM |
| 27 ± 4% | 19 ± 9.4% | 1.75 ± 0.2 µM | 418 ± 98 nM | 3340 ± 658 nM | 123 ± 2 nM | 2880 ± 695 nM | CN(C)c1nc(N)c2ncn(C3CCCC3)c2n1 [Compound 12, 9-Cyclopentyl-N^2,N^2-dimethyl-9H-purine-2,6-diamine] |  |  |
| 34 ± 5% | 22 ± 1% | 0.59 ± 0.2 µM | 69 ± 18 nM | 2900 ± 648 nM | 76 ± 17 nM | 1150 ± 107 nM | CN(C)c1nc(NCc2nc3ccccc3[nH]2)c2ncn(C3CCCC3)c2n1 [Compound 17, N^6-((1H-benzo[d]imidazol-2-yl)methyl)-9-cyclopentyl-N^2,N^2-dimethyl-9H-purine-2,6-diamine] |  |  |
|  |  |  |  |  |  |  | Fc1cccc(-n2cnc3c(NCc4nc5ccc(Cl)cc5[nH]4)nc(N4CCNCC4)nc32)c1 [SR-2890] | 4 nM |  |
|  |  |  |  |  |  |  | c1ccc2[nH]c(CNc3nc(N4CCOCC4)nc4c3ncn4-c3ccsc3)nc2c1 [SR-653234] |  | IC50 (CK1δ): 160 nM; IC50 (CK1ε): 540 nM |

| Compound | remaining activity at 10 µM (truncated CK1δ) | remaining activity at 40 µM (truncated CK1δ) | IC50 (truncated CK1δ) | IC50 (hA2AAR) | Ki (human recombinant A1AR) | Ki (human recombinant A2AAR [2]) | Ki (human recombinant A3AR) | IC50 (CK1δ/ε) | also measured |
| --- | --- | --- | --- | --- | --- | --- | --- | --- | --- |
| CCn1cnc2c(N)nc(Cl)nc21 [Compound 3] | 71% | 41% | > 10 µM |  |  |  |  |  | Ki (human recombinant A2AAR [1]): 3000 nM |
